Key:
[1] = molecular target: T1, HIV-1 integrase (strand transfer step) (Human immunodeficiency virus type 1 group M subtype B, UniProt P04585); test: Strand transfer assay (ELISA); type: biochemical; details: concentration required to inhibit the in vitro strand transfer step by 50%; read-out: IN enzymatic activity (IC50) ST
T1 construct: To determine the susceptibility of the HIV-1 integrase enzyme towards different compounds
From the text: (§1) Overall integrase assay using an enzyme-linked immunosorbent assay (ELISA): To determine the susceptibility of the HIV-1 integrase enzyme towards different compounds we used enzyme-linked immunosorbent assays. These assays use an oligonucleotide substrate of which one oligonucleotide (5’-[…]-3’) is labeled with biotin at the 3’ end and the other oligonucleotide is labeled with digoxigenin at the 5’ end. For the overall integration assay the second 5’-digoxigenin labeled oligonucleotide is (5’-[…] […]-3’). For the Strand Transfer assay the second oligonucleotide lacks GT at the 3’ end. The integrase enzyme was diluted in 750 mM NaCl, 10 mM Tris pH 7.6, 10% glycerol, and 1 mM β-mercaptoethanol. To perform the reaction, diluted integrase (4 µL, corresponding to a concentration of 1.6 µM) and annealed oligonucleotides (4 µL, 7 nM) were added in a final reaction volume of 40 µL containing 10 mM MgCl2, 5 mM DTT, 20 mM HEPES pH 7.5, 5% PEG, and 15% DMSO. The reaction was carried out for 1 h at 37 °C. Reaction products were denatured with 30 mM NaOH and detected by an immunosorbent assay on avidin-coated plates.

[2] = molecular target: T2, HIV-1 integrase (Human immunodeficiency virus type 1 group M subtype B, UniProt P04585); test: Overall integrase assay (ELISA); type: biochemical; details: concentration required to inhibit the in vitro overall integrase activity by 50%; read-out: IN enzymatic activity (IC50) Overall
T2 construct: To determine the susceptibility of the HIV-1 integrase enzyme towards different compounds
From the text: as §1

[3] = system: HIV(IIIB) strain in MT-4 cells; test: MT-4/MTT assay, HIV-induced cytopathic effect; type: cell-based, HIV-1; details: for EC50: Human immunodeficiency virus 1, IIIB, MT4, 50% protection against CPE of HIV, read-out: EC50 against HIV-1 replication in cell cultures
Description: In vitro anti-HIV and drug susceptibility assays: The inhibitory effect of antiviral drugs on the HIV-induced cytopathic effect (CPE) in human lymphocyte MT-4 cell culture was determined by the MT-4/MTT-assay. This assay is based on the reduction of the yellow 3-(4,5-dimethylthiazol-2-yl)-2,5-diphenyltetrazolium bromide (MTT) by mitochondrial dehydrogenase of metabolically active cells to a blue formazan derivative, which can be measured spectrophotometrically. The 50% cell culture infective dose (CCID50) of the HIV(IIIB) strain was determined by titration of the virus stock using MT-4 cells. For the drug-susceptibility assays, MT-4 cells were infected with 100–300 CCID50 of the virus stock in the presence of fivefold serial dilutions of the antiviral drugs. The concentration of the various compounds that achieved 50% protection against the CPE of the different HIV strains, which is defined as the EC50, was determined. In parallel, the 50% cytotoxic concentration (CC50) was determined.

[4] = system: HIV-IN; parameters: method as in PMID 19385721, PMID 20112170; details: HIV-IN inhibitor; cited from earlier work

| SMILES | IC50 [1] [µM] | IC50 [2] [µM] | melting point [°C] | EC50 [3] [µM] | selectivity index (SI) ([3]; ratio of EC50 and CC50 values) | IC50 [4] [µM] |
| --- | --- | --- | --- | --- | --- | --- |
| COc1cccc2c1c(C(=O)/C=C(\O)C(=O)O)cn2Cc1ccc(F)cc1 [CHI-1043, reference compound] | 0.14 ± 0.11 | 0.08 ± 0.003 | – | – | – | – |
| COc1cccc2c1c(C(=O)C=C(O)C(=O)O)cn2Cc1ccccc1C [Compound 7a, 4-[1-(2-Methylbenzyl)-4-methoxy-1H-indol-3-yl]-2-hydroxy-4-oxobut-2-enoic acid] | 1.07 ± 0.76 | 1.74 ± 1.32 | 164 to 166 | 1.74 | 43 | – |
| COc1cccc2c1c(C(=O)C=C(O)C(=O)O)cn2Cc1cccc(C)c1 [Compound 7b, 4-[1-(3-Methylbenzyl)-4-methoxy-1H-indol-3-yl]-2-hydroxy-4-oxobut-2-enoic acid] | 1.36 ± 0.64 | 0.42 ± 0.29 | 150 to 152 | 2.14 | – | – |
| COc1cccc2c1c(C(=O)C=C(O)C(=O)O)cn2Cc1ccc(C)cc1 [Compound 7c, 4-[1-(4-Methylbenzyl)-4-methoxy-1H-indol-3-yl]-2-hydroxy-4-oxobut-2-enoic acid] | 8.84 ± 5.6 | 5.76 ± 1.82 | 141 to 143 | – | – | – |
| COc1cccc2c1c(C(=O)C=C(O)C(=O)O)cn2Cc1cccc(C)c1C [Compound 7d, 4-[1-(2,3-Dimethylbenzyl)-4-methoxy-1H-indol-3-yl]-2-hydroxy-4-oxobut-2-enoic acid] | 6.79 ± 0.64 | 2.61 ± 1.17 | 160 to 162 | 1.74 | – | – |
| COc1cccc2c1c(C(=O)C=C(O)C(=O)O)cn2Cc1ccc(C)cc1C [Compound 7e, 4-[1-(2,4-Dimethylbenzyl)-4-methoxy-1H-indol-3-yl]-2-hydroxy-4-oxobut-2-enoic acid] | 55.9 ± 43.8 | 51.8 ± 33.8 | 143 to 145 | – | – | – |
| COc1cccc2c1c(C(=O)C=C(O)C(=O)O)cn2Cc1cc(C)ccc1C [Compound 7f, 4-[1-(2,5-Dimethylbenzyl)-4-methoxy-1H-indol-3-yl]-2-hydroxy-4-oxobut-2-enoic acid] | 9.47 ± 1.06 | 3.83 ± 2.21 | 163 to 165 | – | – | – |
| COc1cccc2c1c(C(=O)C=C(O)C(=O)O)cn2Cc1c(C)cccc1C [Compound 7g, 4-[1-(2,6-Dimethylbenzyl)-4-methoxy-1H-indol-3-yl]-2-hydroxy-4-oxobut-2-enoic acid] | 23.5 ± 17.8 | 7.34 ± 1.32 | 173 to 175 | – | – | – |
| COc1cccc2c1c(C(=O)C=C(O)C(=O)O)cn2Cc1cc(C)cc(C)c1 [Compound 7h, 4-[1-(3,5-Dimethylbenzyl)-4-methoxy-1H-indol-3-yl]-2-hydroxy-4-oxobut-2-enoic acid] | 5.49 ± 2.67 | 7.69 ± 5.59 | 120 to 122 | – | – | – |
| COc1cccc2c1c(C(=O)C=C(O)C(=O)O)cn2Cc1cc(C)c(F)c(C)c1 [Compound 7i, 4-[1-(4-Fluoro-3,5-dimethylbenzyl)-4-methoxy-1H-indol-3-yl]-2-hydroxy-4-oxobut-2-enoic acid] | 5.24 ± 1.34 | 2.17 ± 1.65 | 153 to 155 | – | – | – |
| Cc1nnc(C(=O)NC(C)(C)c2nc(C(=O)NCc3ccc(F)cc3)c(O)c(=O)n2C)o1 [raltegravir] | – | – | – | – | – | 0.0068 |

From PMC6264142, “Microwave Assisted Organic Synthesis (MAOS) of Small Molecules as Potential HIV-1 Integrase Inhibitors” (Molecules, 2011)
